# Data from ChEMBL document CHEMBL5344426, “Imidazolone as an Amide Bioisostere in the Development of β-1,3-N-Acetylglucosaminyltransferase 2 (B3GNT2) Inhibitors” (J Med Chem, 2023).
# Experiments:
# [1] = target: N-acetyllactosaminide beta-1,3-N-acetylglucosaminyltransferase 4 (Homo sapiens, UniProt Q9C0J1); assay: Inhibition of B3GNT4 (unknown origin) using Beta-lactose and UDP-GlcNAc as substrate incubated for 1.5 to 2 hrs by UDP-Glo based analysis
# Jurkat = assay: Antiproliferative activity against human Jurkat cells assessed as inhibition of cell growth incubated for 3 days by SYTOX blue staining based flow cytometry analysis; type: functional; conditions: 72 h
# [2] = target: T1, N-acetyllactosaminide beta-1,3-N-acetylglucosaminyltransferase 2 (Homo sapiens, UniProt Q9NY97); assay: Inhibition of B3GNT2 (unknown origin) using N-acetyl-lactosamine and UDP-GlcNAc as substrate incubated for 1.5 to 2 hrs by UDP-Glo based analysis
# T1 sequence (Q9NY97 whole entry): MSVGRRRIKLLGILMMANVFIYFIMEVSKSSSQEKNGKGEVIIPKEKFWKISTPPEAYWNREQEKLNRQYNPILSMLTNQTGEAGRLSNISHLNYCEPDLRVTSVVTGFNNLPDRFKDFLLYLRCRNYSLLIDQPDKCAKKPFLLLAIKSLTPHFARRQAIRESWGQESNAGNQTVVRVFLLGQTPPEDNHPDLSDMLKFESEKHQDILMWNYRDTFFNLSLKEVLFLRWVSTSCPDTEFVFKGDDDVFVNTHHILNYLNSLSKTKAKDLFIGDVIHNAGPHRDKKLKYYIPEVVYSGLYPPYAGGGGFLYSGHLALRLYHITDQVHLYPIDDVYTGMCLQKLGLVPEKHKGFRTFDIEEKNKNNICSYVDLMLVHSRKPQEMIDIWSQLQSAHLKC
# [3] = Microsomal stability in rat liver microsome assessed as intrinsic clearance at 1 uM incubated for 20 mins in presence of NADPH by LC-MS/MS analysis; type: ADME; conditions: liver microsomes, read-out: CLH
# [4] = Volume of distribution at steady state in mouse at 5 mg/kg, po; type: ADME, organism-based; conditions: in vivo
# [5] = Half life in mouse at 5 mg/kg, po; type: ADME, organism-based; conditions: in vivo; for t1/2: po, 5 mg/kg
# [6] = Solubility of compound in HCL incubated for 48 to 72 hrs by LC-MS analysis; type: physicochemical; conditions: time 48-72 hrs
# [7] = Microsomal stability in mouse liver microsome assessed as intrinsic clearance at 1 uM incubated for 20 mins in presence of NADPH by LC-MS/MS analysis; type: ADME; conditions: liver microsomes, read-out: CLH
# [8] = Clearance in mouse at 5 mg/kg, po; type: ADME, organism-based; conditions: in vivo; for CL: po, 5 mg/kg
# [9] = Solubility of compound in FeSSIF incubated for 48 to 72 hrs by LC-MS analysis; type: physicochemical; conditions: time 48-72 hrs
# [10] = Microsomal stability in human liver microsome assessed as intrinsic clearance at 1 uM incubated for 20 mins in presence of NADPH by LC-MS/MS analysis; type: ADME; conditions: liver microsomes, read-out: CLH
# [11] = Oral bioavailability in mouse at 5 mg/kg; type: ADME, organism-based; conditions: in vivo
# [12] = Solubility of compound in PBS incubated for 48 to 72 hrs by LC-MS analysis; type: physicochemical; conditions: time 48-72 hrs
# [13] = Permeability of compound across apical to basolateral in MDCK-II cells incubated for 2 hrs by LC-MS/MS analysis; type: ADME, cell-based, Canis lupus familiaris; conditions: dog, read-out: permeability
# Chain of N-acetyllactosaminide beta-1,3-N-acetylglucosaminyltransferase 4 (Q9C0J1 whole entry): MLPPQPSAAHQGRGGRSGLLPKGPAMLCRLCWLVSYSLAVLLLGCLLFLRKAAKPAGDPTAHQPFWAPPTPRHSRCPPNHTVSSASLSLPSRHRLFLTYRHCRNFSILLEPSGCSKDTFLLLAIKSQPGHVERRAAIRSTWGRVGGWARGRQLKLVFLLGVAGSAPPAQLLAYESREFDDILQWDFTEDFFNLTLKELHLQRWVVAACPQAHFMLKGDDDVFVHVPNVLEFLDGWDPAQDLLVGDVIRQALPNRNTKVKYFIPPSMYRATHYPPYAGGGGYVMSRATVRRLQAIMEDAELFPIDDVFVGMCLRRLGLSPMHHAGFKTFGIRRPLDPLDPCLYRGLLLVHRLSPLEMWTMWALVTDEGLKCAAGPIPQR
Structure (SMILES),IC50 [1] [µM],IC50 ([2]; read-out: IC50) [µM],IC50 (Jurkat) [µM],further results
C[C@H](NC(=O)c1ccc2[nH]c(=O)n([C@H](C)C(C)(C)C)c2c1)c1ccc(Cl)cc1,> 250,0.29,47.2,
C[C@@H](n1c(=O)[nH]c2ccc(C(=O)NC(C)(C)c3ccc(Cl)cc3)cc21)C(C)(C)C,> 250,0.84,,
C[C@@H](n1c(=O)[nH]c2ccc(C3=N[C@@](C)(c4ccc5nccn5c4)NC3=O)cc21)C(C)(C)C,,0.37,38.2,
C[C@@H](n1c(=O)[nH]c2ccc(C3=NC(=O)[C@@](C)(c4ccc(Cl)cn4)N3)cc21)C(C)(C)C,,0.51,,
C[C@H](NC(=O)c1ccc2[nH]c(=O)n([C@H](C)C(C)(C)C)c2c1)c1ccc(Br)cn1,169,0.1,12.5,
Cc1ncc([C@H](C)NC(=O)c2ccc3[nH]c(=O)n([C@H](C)C(C)(C)C)c3c2)cn1,> 250,0.12,22.4,
C[C@@H](NC(=O)c1ccc2[nH]c(=O)n([C@H](C)C(C)(C)C)c2c1)c1ccc(Cl)cc1,> 250,2.72,,
C[C@@H](n1c(=O)[nH]c2ccc(C(=O)NCc3ccc(Cl)cc3)cc21)C(C)(C)C,> 250,0.61,67.8,
C[C@H](NC(=O)c1ccc2[nH]c(=O)n([C@H](C)C(C)(C)C)c2c1)c1ccc(Cl)cn1,> 250,0.23,32,
CC(C)NC(=O)c1ccc2[nH]c(=O)n([C@H](C)C(C)(C)C)c2c1,> 250,2.9,,
C[C@H](NC(=O)c1ccc2[nH]c(=O)n([C@H](C)C(C)(C)C)c2c1)c1cnc(Cl)cn1,> 250,0.89,23.5,
Cc1[nH]c2ccc([C@]3(C)N=C(c4ccc5[nH]c(=O)n([C@H](C)C(C)(C)C)c5c4)C(=O)N3)cc2c1C,,1.01,,
C[C@H](NC(=O)c1ccc2[nH]c(=O)n([C@H](C)C(C)(C)C)c2c1)c1ccc(C(F)(F)F)cn1,> 250,0.23,66.1,
CC(C)Cn1c(=O)[nH]c2ccc(C(=O)O)cc21,> 250,9.1,,
C[C@@H](n1c(=O)[nH]c2ccc(C3=NC(=O)[C@](C)(c4ccccc4)N3)cc21)C(C)(C)C,> 250,0.6,> 85,
C[C@@H](n1c(=O)[nH]c2ccc(C(=O)O)cc21)C(C)(C)C,122,0.26,> 85,
Cc1ccc([C@]2(C)NC(c3ccc4[nH]c(=O)n([C@H](C)C(C)(C)C)c4c3)=NC2=O)nc1,,0.096,13.8,
C[C@@H](n1c(=O)[nH]c2ccc(C3=NC(c4ccc(Cl)cn4)(c4ccc(Cl)cn4)NC3=O)cc21)C(C)(C)C,,0.2,37.1,
C[C@@H](n1c(=O)[nH]c2ccc(C(=O)Nc3ccccc3)cc21)C(C)(C)C,> 250,0.82,38.8,
C[C@@H](n1c(=O)[nH]c2ccc(C3=NOC(C)(c4ccccc4)N3)cc21)C(C)(C)C (stereo partly specified),,0.9,28,
Cc1ccc([C@]2(C)NC(c3ccc4[nH]c(=O)n([C@H](C)C(C)(C)C)c4c3)=NC2=O)cn1,,0.029,5.1,
C[C@@H](n1c(=O)[nH]c2ccc(C3=NC(C)(c4cnc(C(F)(F)F)nc4)C(=O)O3)cc21)C(C)(C)C (stereo partly specified),,,,IC50 [2]: Not Active
C[C@H](NC(=O)c1ccc2[nH]c(=O)n([C@H](C)C(C)(C)C)c2c1)c1ncc(Cl)cn1,> 250,0.43,29.2,
C[C@@H](n1c(=O)[nH]c2ccc(C(=O)N3CCOCC3)cc21)C(C)(C)C,> 250,26.6,,

# Continued by falling IC50 ([2]; read-out: IC50), values first:
IC50 [1] [µM],IC50 ([2]; read-out: IC50) [µM],Structure (SMILES),IC50 (Jurkat) [µM],further results
> 250,0.093,Cc1ccc([C@H](C)NC(=O)c2ccc3[nH]c(=O)n([C@H](C)C(C)(C)C)c3c2)nc1,8.8,
,0.082,C[C@@H](n1c(=O)[nH]c2ccc(C3=NC(=O)[C@](C)(c4ncc(Cl)cn4)N3)cc21)C(C)(C)C,16.2,
> 250,0.076,C[C@H](NC(=O)c1ccc2[nH]c(=O)n([C@H](C)C(C)(C)C)c2c1)c1cnc(Cl)nc1,15.3,
> 250,0.07,C[C@H](NC(=O)c1ccc2[nH]c(=O)n([C@H](C)C(C)(C)C)c2c1)c1cnc(C(F)(F)F)nc1,17.2,microsomal CLint at 1 µM [3]: 42 µL/min/mg; Vdss [4]: 1.8 L/kg; half-life [5]: 1.9 h; solubility [6]: 180 µM; microsomal CLint at 1 µM [7]: 61 µL/min/mg; CL/F [8]: 13.3 mL/min/kg; solubility [9]: 298 µM; microsomal CLint at 1 µM [10]: 14 µL/min/mg; bioavailability [11]: 28%; solubility [12]: 155 µM; Papp A→B at 2 h [13]: 21 ×10⁻⁶ cm/s
,0.069,C[C@@H](n1c(=O)[nH]c2ccc(C3=N[C@@](C)(c4ccc(Cl)cn4)NC3=O)cc21)C(C)(C)C,8.2,
,0.066,C[C@@H](n1c(=O)[nH]c2ccc(C3=NC(=O)[C@](C)(c4ccc(Cl)cn4)N3)cc21)C(C)(C)C,8.1,
165,0.06,Cc1[nH]c2cc(NC(=O)c3ccc4[nH]c(=O)n([C@H](C)C(C)(C)C)c4c3)ccc2c1C,3.6,
,0.055,C[C@@H](n1c(=O)[nH]c2ccc(C3=N[C@@](C)(c4cc5ccccc5[nH]4)NC3=O)cc21)C(C)(C)C,9.9,
,0.053,C[C@@H](n1c(=O)[nH]c2ccc(C3=N[C@]4(CCc5cc(Br)ccc54)NC3=O)cc21)C(C)(C)C,6.4,
,0.039,C[C@@H](n1c(=O)[nH]c2ccc(C3=N[C@](c4ccc(Cl)nc4)(c4ccccn4)NC3=O)cc21)C(C)(C)C,5.5,
,0.03,C[C@@H](n1c(=O)[nH]c2ccc(C3=NC(=O)[C@](C)(c4ccc(C(F)(F)F)cn4)N3)cc21)C(C)(C)C,23.8,
,0.028,C[C@@H](n1c(=O)[nH]c2ccc(C3=C[C@@](C)(c4cnc(C(F)(F)F)nc4)OC3=O)cc21)C(C)(C)C,5.6,
,0.026,C[C@@H](n1c(=O)[nH]c2ccc(C3=N[C@@](c4cccnc4)(c4nnc[nH]4)NC3=O)cc21)C(C)(C)C,> 85,
,0.024,C[C@@H](n1c(=O)[nH]c2ccc(C3=N[C@@](C)(c4cnc(C(F)(F)F)nc4)NC3=O)cc21)C(C)(C)C,3.8,
> 250,0.024,Cc1ncc([C@]2(C)NC(c3ccc4[nH]c(=O)n([C@H](C)C(C)(C)C)c4c3)=NC2=O)cn1,4.2,
,0.013,C[C@@H](n1c(=O)[nH]c2ccc(C3=N[C@@](Cc4ccccc4)(c4cnc(C(F)(F)F)nc4)NC3=O)cc21)C(C)(C)C,4,
> 250,0.009,C[C@@H](n1c(=O)[nH]c2ccc(C3=NC(=O)[C@](C)(c4cnc(C(F)(F)F)nc4)N3)cc21)C(C)(C)C,1.1,microsomal CLint at 1 µM [3]: 15 µL/min/mg; Vdss [4]: 2.6 L/kg; t1/2 [5]: 1.4 h; solubility [6]: 329 µM; microsomal CLint at 1 µM [7]: 15 µL/min/mg; CL [8]: 5 mL/min/kg; solubility [9]: 485 µM; microsomal CLint at 1 µM [10]: 14 µL/min/mg; bioavailability [11]: 54%; solubility [12]: 154 µM; Papp A→B at 2 h [13]: 17 ×10⁻⁶ cm/s
,0.008,C[C@@H](n1c(=O)[nH]c2ccc(C3=NC(=O)[C@](C)(c4ccc(C(F)(F)F)nc4)N3)cc21)C(C)(C)C,2.3,microsomal CLint at 1 µM [3]: 14 µL/min/mg; Vdss [4]: 3.4 L/kg; t1/2 [5]: 1.5 h; solubility [6]: 311 µM; microsomal CLint at 1 µM [7]: 14 µL/min/mg; CL [8]: 5 mL/min/kg; solubility [9]: 500 µM; microsomal CLint at 1 µM [10]: 34 µL/min/mg; bioavailability [11]: 66%; solubility [12]: 66 µM; Papp A→B at 2 h [13]: 15 ×10⁻⁶ cm/s
